Source: PubChem BioAssay AID248 (DTP/NCI, 2004)
Inconclusive results and toxic doses are left out. Rule as the data show it: active = T/C of 150% or more; inactive = T/C below 125%.

Tested on: L1210 leukemia ip in BDF1 mice, survival T/C
Assay: NCI In Vivo Anticancer Drug Screen. Data for tumor model L1210 Leukemia (intraperitoneal) in B6D2F1 (BDF1) mice
Details: endpoint: mean survival time, higher = longer survival
Procedure, shortened: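 Survival endpoint. Drug-treated group vs vehicle group, expressed as T divided by C. Tumor passaged by transplantation.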

[1] = dose: 100.0 mg/kg/injection, schedule: Q01DX001 (ip), vehicle: saline
[2] = dose: 200.0 mg/kg/injection, schedule: Q01DX001 (ip), vehicle: saline
[3] = dose: 100.0 mg/kg/injection, schedule: Q01DX001 (ip), vehicle: carboxymethylcellulose (CMC)
[4] = dose: 200.0 mg/kg/injection, schedule: Q01DX001 (ip), vehicle: carboxymethylcellulose (CMC)
[5] = dose: 400.0 mg/kg/injection, schedule: Q01DX001 (ip), vehicle: carboxymethylcellulose (CMC)

Measured: T/C

COc1cc2c(c(OC)c1OC)-c1ccc(OC)c(=O)cc1[C@@H](NC(=O)c1ccccc1)CC2
inactive: dose: 0.13 mg/kg/injection, schedule: Q01DX Z (ip), vehicle: methylcellulose (MC) 87 % of control | dose: 0.2 mg/kg/injection, schedule: Q01DX Z (ip), vehicle: methylcellulose (MC) 120 % of control | dose: 0.29 mg/kg/injection, schedule: Q01DX Z (ip), vehicle: methylcellulose (MC) 122 % of control | dose: 0.44 mg/kg/injection, schedule: Q01DX Z (ip), vehicle: methylcellulose (MC) 95 % of control | dose: 0.75 mg/kg/injection, schedule: Q01DX Z (ip), vehicle: methylcellulose (MC) 101 % of control | dose: 0.8 mg/kg/injection, schedule: Q01DX Z (ip), vehicle: methylcellulose (MC) 103 % of control | dose: 1.2 mg/kg/injection, schedule: Q01DX Z (ip), vehicle: methylcellulose (MC) 106 % of control | dose: 1.6 mg/kg/injection, schedule: Q01DX015 (ip), vehicle: carboxymethylcellulose (CMC) 108 % of control | dose: 1.8 mg/kg/injection, schedule: Q01DX Z (ip), vehicle: methylcellulose (MC) 103 % of control | dose: 2.5 mg/kg/injection, schedule: Q01DX015 (ip), vehicle: carboxymethylcellulose (CMC) 108 % of control | dose: 2.7 mg/kg/injection, schedule: Q01DX Z (ip), vehicle: methylcellulose (MC) 105 % of control | dose: 3.7 mg/kg/injection, schedule: Q01DX015 (ip), vehicle: carboxymethylcellulose (CMC) 123 % of control | dose: 4.0 mg/kg/injection, schedule: Q01DX Z (ip), vehicle: methylcellulose (MC) 114 % of control | dose: 5.0 mg/kg/injection, schedule: Q01DX001 (ip), vehicle: carboxymethylcellulose (CMC) 104 % of control | dose: 5.6 mg/kg/injection, schedule: Q01DX015 (ip), vehicle: carboxymethylcellulose (CMC) 108 % of control | dose: 8.4 mg/kg/injection, schedule: Q01DX015 (ip), vehicle: carboxymethylcellulose (CMC) 86 % of control | dose: 10.0 mg/kg/injection, schedule: Q01DX001 (ip), vehicle: carboxymethylcellulose (CMC) 120 % of control | dose: 20.0 mg/kg/injection, schedule: Q01DX001 (ip), vehicle: carboxymethylcellulose (CMC) 118 % of control | dose: 27.0 mg/kg/injection, schedule: Q01DX001 (ip), vehicle: carboxymethylcellulose (CMC) 120 % of control

O=S(=O)([O-])NC1CCCCC1.O=S(=O)([O-])NC1CCCCC1.[Hg+2].[Hg+2].[Hg+2].[O-2].[O-2]
inactive: dose: 0.5 mg/kg/injection, schedule: Q01DX009 (ip), vehicle: saline with Tween-80 100 % of control | dose: 0.5 mg/kg/injection, schedule: Q04DX003 (ip), vehicle: saline sonified 97 % of control | dose: 1.0 mg/kg/injection, schedule: Q01DX009 (ip), vehicle: saline with Tween-80 94 % of control | dose: 1.0 mg/kg/injection, schedule: Q04DX003 (ip), vehicle: saline sonified 101 % of control | dose: 2.0 mg/kg/injection, schedule: Q01DX009 (ip), vehicle: saline with Tween-80 96 % of control | dose: 2.0 mg/kg/injection, schedule: Q04DX003 (ip), vehicle: saline sonified 94 % of control | dose: 4.0 mg/kg/injection, schedule: Q01DX009 (ip), vehicle: saline with Tween-80 93 % of control

CCCCOCC(O)CNCCN (centres undefined)
inactive: dose: 100.0 mg/kg/injection, schedule: Q04DX002 (ip), vehicle: saline 108 % of control | dose: 200.0 mg/kg/injection, schedule: Q04DX002 (ip), vehicle: saline 90 % of control | dose: 400.0 mg/kg/injection, schedule: Q04DX002 (ip), vehicle: saline 104 % of control

S=C(Nc1ccccc1)Nc1ccc(Br)cc1
inactive: dose: 100.0 mg/kg/injection, schedule: Q04DX002 (ip), vehicle: Klucel (hydroxypropylcellulose) (HPC) 101 % of control | dose: 200.0 mg/kg/injection, schedule: Q04DX002 (ip), vehicle: Klucel (hydroxypropylcellulose) (HPC) 105 % of control | dose: 400.0 mg/kg/injection, schedule: Q04DX002 (ip), vehicle: Klucel (hydroxypropylcellulose) (HPC) 97 % of control

Cc1cc(C)c(SSc2c(C)cc(C)cc2C)c(C)c1
inactive: dose: 50.0 mg/kg/injection, schedule: Q01DX001 (ip), vehicle: saline 106 % of control | [1] 104 % of control | [2] 100 % of control

CNC(=O)OCC1=CC(=O)C=C(OC)C1=O
inactive: dose: 6.25 mg/kg/injection, schedule: Q01DX009 (ip), vehicle: gum acacia 90 % of control | dose: 12.5 mg/kg/injection, schedule: Q04DX003 (ip), vehicle: gum acacia 94 % of control | dose: 25.0 mg/kg/injection, schedule: Q04DX003 (ip), vehicle: gum acacia 101 % of control

O=C(O)c1cnc(Cl)c([N+](=O)[O-])c1
inactive: dose: 100.0 mg/kg/injection, schedule: Q04DX003 (ip), vehicle: saline with Tween-80 96 % of control | dose: 200.0 mg/kg/injection, schedule: Q04DX003 (ip), vehicle: saline with Tween-80 89 % of control

NCc1cccc(OCCOc2ccccc2)c1
inactive: dose: 100.0 mg/kg/injection, schedule: Q01DX001 (ip), vehicle: saline with Tween-80 102 % of control | dose: 200.0 mg/kg/injection, schedule: Q01DX001 (ip), vehicle: saline with Tween-80 97 % of control | dose: 400.0 mg/kg/injection, schedule: Q01DX001 (ip), vehicle: saline with Tween-80 103 % of control

O=C(NC1CCCCC1)C(=S)NC1CCCCC1
inactive: dose: 100.0 mg/kg/injection, schedule: Q01DX009 (ip), vehicle: Klucel (hydroxypropylcellulose) (HPC) 93 % of control | dose: 200.0 mg/kg/injection, schedule: Q01DX009 (ip), vehicle: Klucel (hydroxypropylcellulose) (HPC) 101 % of control | dose: 400.0 mg/kg/injection, schedule: Q01DX009 (ip), vehicle: Klucel (hydroxypropylcellulose) (HPC) 98 % of control

O=c1cc(CCl)occ1O
inactive: dose: 50.0 mg/kg/injection, schedule: Q04DX003 (ip), vehicle: Klucel (hydroxypropylcellulose) (HPC) 95 % of control | dose: 100.0 mg/kg/injection, schedule: Q04DX003 (ip), vehicle: Klucel (hydroxypropylcellulose) (HPC) 98 % of control | dose: 200.0 mg/kg/injection, schedule: Q04DX003 (ip), vehicle: Klucel (hydroxypropylcellulose) (HPC) 97 % of control

Cc1nc2ncnc(NCc3ccc(Cl)cc3Cl)c2[nH]1
inactive: [1] 97 % of control | [2] 89 % of control | dose: 400.0 mg/kg/injection, schedule: Q01DX001 (ip), vehicle: saline 108 % of control

COc1cccc2c1C(=O)c1c(OC)c(CO)cc(OC)c1C2=O
inactive: dose: 12.5 mg/kg/injection, schedule: Q01DX009 (ip), vehicle: water 93 % of control | dose: 25.0 mg/kg/injection, schedule: Q01DX009 (ip), vehicle: water 91 % of control | dose: 50.0 mg/kg/injection, schedule: Q01DX009 (ip), vehicle: water 87 % of control | dose: 100.0 mg/kg/injection, schedule: Q01DX009 (ip), vehicle: water 97 % of control | dose: 200.0 mg/kg/injection, schedule: Q01DX009 (ip), vehicle: water 95 % of control

CCCCOC(=O)C1C=C(N)CCC1 (centres undefined)
inactive: [3] 92 % of control | [4] 89 % of control | [5] 94 % of control

CC(C)(CCC(=O)O)CCC(=O)O
inactive: dose: 50.0 mg/kg/injection, schedule: Q01DX001 (ip), vehicle: carboxymethylcellulose (CMC) 100 % of control | [3] 111 % of control | [4] 100 % of control | [5] 94 % of control
